Measured values from patent publication US11111214B2 (priority 2013, dated 2021).
pEC50, pIC50, pKi: −log10 of the molar value.

How the values were obtained:
[1] = biological target: T1, recombinant human kappa (KOR) opioid receptor (Homo sapiens, UniProt P41145); assay: biochemical; type: binding
T1 construct: expressed in transfected cells; host or cells: CHO-K1 cell membranes

[2] = biological target: T2, recombinant human mu (MOR) opioid receptor (Homo sapiens, UniProt P35372); assay: biochemical; type: binding; conditions: for inhibition at 10 µM: read-out: Mu receptor % inhibition at single concentration, % inhibition @ 10 μM
T2 construct: expressed in transfected cells; host or cells: CHO-K1 cell membranes

[3] = biological target: T3, KOR (kappa opioid receptor) (Homo sapiens, UniProt P41145); assay: cell-based
T3 construct: expressed in transfected cells; host or cells: CHO-K1 cells stably expressing KOR
T3 sequence (P41145 whole entry): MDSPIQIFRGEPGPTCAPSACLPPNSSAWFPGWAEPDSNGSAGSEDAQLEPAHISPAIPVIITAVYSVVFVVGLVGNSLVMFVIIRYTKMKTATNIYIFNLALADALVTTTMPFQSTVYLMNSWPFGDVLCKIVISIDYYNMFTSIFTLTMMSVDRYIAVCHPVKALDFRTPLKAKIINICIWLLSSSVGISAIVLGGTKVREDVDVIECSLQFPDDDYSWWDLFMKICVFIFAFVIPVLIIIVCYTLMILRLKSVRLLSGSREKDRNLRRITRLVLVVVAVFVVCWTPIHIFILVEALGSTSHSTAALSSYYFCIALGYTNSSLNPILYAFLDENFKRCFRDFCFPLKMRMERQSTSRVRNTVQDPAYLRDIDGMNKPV

T1 sequence (P41145 whole entry): as above
T2 sequence (P35372 whole entry): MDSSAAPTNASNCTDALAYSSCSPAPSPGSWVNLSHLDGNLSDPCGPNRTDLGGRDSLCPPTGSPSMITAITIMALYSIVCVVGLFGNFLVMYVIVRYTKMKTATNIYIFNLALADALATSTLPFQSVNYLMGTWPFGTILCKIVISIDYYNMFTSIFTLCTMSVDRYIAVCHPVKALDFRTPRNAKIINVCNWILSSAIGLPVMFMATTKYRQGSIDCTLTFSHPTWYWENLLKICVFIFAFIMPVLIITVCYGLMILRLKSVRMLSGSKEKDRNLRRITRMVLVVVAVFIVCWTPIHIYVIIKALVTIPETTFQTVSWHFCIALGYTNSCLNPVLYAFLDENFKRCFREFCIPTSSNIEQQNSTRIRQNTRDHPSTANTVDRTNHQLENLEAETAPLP

Which results are given for `COCCOCCOCCOCCOCCO[C@H]1CCN(C[C@H](c2ccccc2)N(C)C(=O)Cc2ccc(Cl)c(Cl)c2)C1` [compound 7, 2-(3,4-Dichlorophenyl)-N-methyl-N-{(1S)-2-[(3S)-3-(2,5,8,11,14-pentaoxahexadecan-16-yloxy)pyrrolidin-1-yl]-1-phenylethyl}acetamide]?
pIC50 [1]: 6.53; pKi [1]: 7.16; pIC50 [2]: 4.81; inhibition at 10 µM [2]: 68.6%; pEC50 [3]: 8.05

With `COCCOCCOCCOCCOCCO[C@H]1CCN(C[C@H](c2ccccc2)N(C)C(=O)CNc2ccccc2)C1` [compound 8, N-Methyl-N-{(1S)-2-[(3S)-3-(2,5,8,11,14-pentaoxahexadecan-16-yloxy)pyrrolidin-1-yl]-1-phenylethyl}-N^2-phenylglycinamide] as the compound, how does the pIC50 [1] read?
The pIC50 was 5.83.

What about the pKi [1] of the same compound?
Its pKi is 6.47.

What about the inhibition at 10 µM [2] of the same compound?
Its inhibition at 10 µM is 47.5%.

What about the pEC50 [3] of the same compound?
Its pEC50 is 7.13.

How did the pIC50 [1] turn out when `COCCOCCOCCOCCOCCO[C@H]1CCN(C[C@H](c2ccccc2)N(C)C(=O)C(c2ccccc2)c2ccccc2)C1` [compound 9, N-Methyl-N-{(1S)-2-[(3S)-3-(2,5,8,11,14-pentaoxahexadecan-16-yloxy)pyrrolidin-1-yl]-1-phenylethyl}-2,2-diphenylacetamide] was run?
Its pIC50 is 5.05.

And the pKi [1]?
The pKi was 5.68.

What about the inhibition at 10 µM [2] of the same compound?
The inhibition at 10 µM was 36.9%.

And the pEC50 [3]?
Its pEC50 is 6.75.

Which results are given for `COCCOCC(=O)Nc1cccc([C@@H](CN2CC[C@H](O)C2)N(C)C(=O)C(c2ccccc2)c2ccccc2)c1` [compound 11, N-[(1S)-2-[(3S)-3-Hydroxypyrrolidin-1-yl]-1-(3-{[(2-methoxyethoxy)acetyl]amino}phenyl)ethyl]-N-methyl-2,2-diphenylacetamide]?
pIC50 [1]: 7.24; pKi [1]: 7.87; inhibition at 10 µM [2]: 45.2%; pEC50 [3]: 8.30

What does the source list for `COCCOCCOCCOCCOCCOCC(=O)Nc1cccc([C@@H](CN2CCCC2)N(C)C(=O)C(c2ccccc2)c2ccccc2)c1` [compound 12, N-{3-[(1S)-1-[(Diphenylacetyl)(methyl)amino]-2-(pyrrolidin-1-yl)ethyl]phenyl}-2,5,8,11,14,17-hexaoxanonadecan-19-amide]?
pIC50 [1]: 6.07; pKi [1]: 6.71; pIC50 [2]: 4.27; inhibition at 10 µM [2]: 46.5%; pEC50 [3]: 7.44

`COCCOCCOCCOCCOCCOc1ccc(CC(=O)N(C)[C@H](CN2CCCC2)c2ccccc2)cc1` [compound 13, N-Methyl-2-[4-(2,5,8, 11, 14-pentaoxahexadecan-16-yloxy)phenyl]-N-[(1S)-1-phenyl-2-(pyrrolidin-1-yl)ethyl]acetamide] was tested. Which pIC50 [1] did it give?
Its pIC50 is 5.88.

What about the pKi [1] of the same compound?
The pKi was 6.52.

What about the inhibition at 10 µM [2] of the same compound?
Its inhibition at 10 µM is 69.9%.

`CN(C(=O)Cc1ccc(Cl)c(Cl)c1)[C@H](CN1CCCC1)c1cccc(NS(C)(=O)=O)c1` [compound 14, 2-(3,4-dichlorophenyl)-N-methyl-N-[(1S)-1-{3-[(methylsulfonyl)amino]phenyl}-2-(pyrrolidin-1-yl)ethyl]acetamide] was tested. Which pIC50 [1] did it give?
Its pIC50 is 9.47.

And the pKi [1]?
The pKi was 10.10.

What about the inhibition at 10 µM [2] of the same compound?
The inhibition at 10 µM was 99.3%.

What about the pEC50 [3] of the same compound?
Its pEC50 is 10.30.

What does the source list for `COCCOCCOCCOCCOCCNC(=O)Nc1cccc([C@@H](CN2CCCC2)N(C)C(=O)Cc2ccc(Cl)c(Cl)c2)c1` [compound 15, 2-(3,4-dichlorophenyl)-N-methyl-N-[(1S)-1-{3-[(2,5,8,11,14-pentaoxahexadecan-16-ylcarbamoyl)amino]phenyl}-2-(pyrrolidin-1-yl)ethyl]acetamide]?
pIC50 [1]: 8.63; pKi [1]: 9.27; inhibition at 10 µM [2]: 84.1%; pEC50 [3]: 9.38

What does the source list for `COCCOCCOCCOCCOCCNC(=O)Nc1cccc([C@@H](CN2CCCC2)N(C)C(=O)C(c2ccc(Cl)cc2)c2ccc(Cl)cc2)c1` [compound 16, 2,2-Bis(4-chlorophenyl)-N-methyl-N-[(1S)-1-{3-[(2,5,8,11,14-pentaoxahexadecan-16-ylcarbamoyl)amino]phenyl}-2-(pyrrolidin-1-yl)ethyl]acetamide]?
pIC50 [1]: 7.20; pKi [1]: 7.84; inhibition at 10 µM [2]: 27.1%; pEC50 [3]: 7.82

What does the source list for `COCCOCCOCCO[C@H]1CCN(C[C@H](c2cccc(NS(C)(=O)=O)c2)N(C)C(=O)Cc2ccc(Cl)c(Cl)c2)C1` [compound 17, 2-(3,4-dichlorophenyl)-N-[(1S)-2-[(3S)-3-{2-[2-(2-methoxyethoxy)ethoxy]ethoxy}pyrrolidin-1-yl]-1-{3-[(methylsulfonyl)amino]phenyl}ethyl]-N-methylacetamide]?
pIC50 [1]: 5.80; pKi [1]: 6.44; inhibition at 10 µM [2]: 81.9%; pEC50 [3]: 7.17

What does the source list for `COCCS(=O)(=O)Nc1cccc([C@@H](CN2CCCC2)N(C)C(=O)Cc2ccc(Cl)c(Cl)c2)c1` [compound 18, 2-(3,4-dichlorophenyl)-N-[(1S)-1-(3-{[(2-methoxyethyl)sulfonyl]amino}phenyl)-2-(pyrrolidin-1-yl)ethyl]-N-methylacetamide]?
pIC50 [1]: 9.24; pKi [1]: 9.89; inhibition at 10 µM [2]: 97.8%; pEC50 [3]: 10.05

What does the source list for `COCCOCCS(=O)(=O)Nc1cccc([C@@H](CN2CCCC2)N(C)C(=O)Cc2ccc(Cl)c(Cl)c2)c1` [compound 20, 2-(3,4-dichlorophenyl)-N-[(1S)-1-[3-({[2-(2-methoxyethoxy)ethyl]sulfonyl}amino)phenyl]-2-(pyrrolidin-1-yl)ethyl]-N-methylacetamide]?
pIC50 [1]: 9.22; pKi [1]: 9.85; inhibition at 10 µM [2]: 97.1%; pEC50 [3]: 9.82

Which results are given for `CCCCOCCOCCOCCS(=O)(=O)Nc1cccc([C@@H](CN2CCCC2)N(C)C(=O)Cc2ccc(Cl)c(Cl)c2)c1` [compound 21, N-[(1S)-1-{3-[({2-[2-(2-butoxyethoxy)ethoxy]ethyl}sulfonyl)amino]phenyl}-2-(pyrrolidin-1-yl)ethyl]-2-(3,4-dichlorophenyl)-N-methylacetamide]?
pIC50 [1]: 9.74; pKi [1]: 10.40; inhibition at 10 µM [2]: 96.5%; pEC50 [3]: 9.70

`CN(C(=O)Cc1ccc(Cl)c(Cl)c1)[C@H](CN1CCCC1)c1cccc(NS(=O)(=O)C2CS(=O)(=O)CC2O)c1` (stereo partly drawn) [compound 22, 2-(3,4-dichlorophenyl)-N-[(1S)-1-(3-{[(4-hydroxy-1,1-dioxidotetrahydrothiophen-3-yl)sulfonyl]amino}phenyl)-2-(pyrrolidin-1-yl)ethyl]-N-methylacetamide] was tested. Which pIC50 [1] did it give?
The pIC50 was 9.49.

What about the pKi [1] of the same compound?
Its pKi is 10.15.

What about the inhibition at 10 µM [2] of the same compound?
The inhibition at 10 µM was 90.2%.

And the pEC50 [3]?
The pEC50 was 10.52.

With `CN(C(=O)Cc1ccc(Cl)c(Cl)c1)[C@H](CN1CC[C@H](OCC(=O)O)C1)c1ccccc1` [compound 24, ({(3S)-1-[(2S)-2-{[(3,4-dichlorophenyl)acetyl](methyl)amino}-2-phenylethyl]pyrrolidin-3-yl}oxy)acetic Acid] as the compound, how does the pIC50 [1] read?
The pIC50 was 5.44.

What about the pKi [1] of the same compound?
The pKi was 6.33.

And the pIC50 [2]?
The pIC50 was 3.80.

What about the inhibition at 10 µM [2] of the same compound?
The inhibition at 10 µM was -7.9%.

And the pEC50 [3]?
Its pEC50 is 6.58.

How did the pIC50 [1] turn out when `CN(C(=O)Cc1ccc(Cl)c(Cl)c1)[C@H](CN1CC[C@H](OCCO)C1)c1ccccc1` [compound 25, 2-(3,4-Dichlorophenyl)-N-{(1S)-2-[(3S)-3-(2-hydroxyethoxy)pyrrolidin-1-yl]-1-phenylethyl}-N-methylacetamide] was run?
The pIC50 was 7.50.

What about the pKi [1] of the same compound?
The pKi was 8.38.

And the pIC50 [2]?
Its pIC50 is 5.35.

What about the inhibition at 10 µM [2] of the same compound?
Its inhibition at 10 µM is 57.5%.

What about the pEC50 [3] of the same compound?
The pEC50 was 8.39.

`CN(C(=O)Cc1ccc(Cl)c(Cl)c1)[C@H](CN1CC[C@H](OCCOCCO)C1)c1ccccc1` [compound 26, 2-(3,4-Dichlorophenyl)-N-[(1S)-2-{(3S)-3-[2-(2-hydroxyethoxy)ethoxy]pyrrolidin-1-yl}-1-phenylethyl]-N-methylacetamide] was tested. Which pIC50 [1] did it give?
The pIC50 was 5.95.

What about the pKi [1] of the same compound?
The pKi was 6.83.

And the pIC50 [2]?
The pIC50 was 4.41.

And the inhibition at 10 µM [2]?
Its inhibition at 10 µM is 35.1%.

What about the pEC50 [3] of the same compound?
The pEC50 was 7.84.

`CN(C(=O)Cc1ccc(Cl)c(Cl)c1)[C@H](CN1CC[C@H](OCCOCCOCCO)C1)c1ccccc1` [compound 27, 2-(3,4-Dichlorophenyl)-N-{(1S)-2-[(3S)-3-{2-[2-(2-hydroxyethoxy)ethoxy]ethoxy}pyrrolidin-1-yl]-1-phenylethyl}-N-methylacetamide] was tested. Which pIC50 [1] did it give?
Its pIC50 is 6.97.

What about the pKi [1] of the same compound?
The pKi was 7.86.

And the pIC50 [2]?
The pIC50 was 5.04.

And the inhibition at 10 µM [2]?
The inhibition at 10 µM was 50.4%.

And the pEC50 [3]?
The pEC50 was 8.36.

What does the source list for `CN(C(=O)Cc1ccc(Cl)c(Cl)c1)[C@H](CN1CC[C@H](OCCOCC(=O)O)C1)c1ccccc1` [compound 28, [2-({(3S)-1-[(2S)-2-{[(3,4-Dichlorophenyl)acetyl](methyl)amino}-2-phenylethyl]pyrrolidin-3-yl}oxy)ethoxy]acetic Acid]?
pIC50 [1]: 5.68; pKi [1]: 6.56; pIC50 [2]: 4.13; inhibition at 10 µM [2]: 4.9%; pEC50 [3]: 6.83

With `CN(C(=O)Cc1ccc(Cl)c(Cl)c1)[C@H](CN1CC[C@H](OCCOCCOCC(=O)O)C1)c1ccccc1` [compound 29, {2-[2-({(3S)-1-[(2S)-2-{[(3,4-Dichlorophenyl)acetyl](methyl)amino}-2-phenylethyl]pyrrolidin-3-yl}oxy)ethoxy]ethoxy}acetic Acid] as the compound, how does the pIC50 [1] read?
The pIC50 was 6.24.

What about the pKi [1] of the same compound?
Its pKi is 6.96.

What about the pIC50 [2] of the same compound?
The pIC50 was 4.59.

What about the inhibition at 10 µM [2] of the same compound?
The inhibition at 10 µM was 30.5%.

What about the pEC50 [3] of the same compound?
The pEC50 was 7.38.

What does the source list for `CCCCOCCOCCOCCS(=O)(=O)Nc1cccc([C@@H](CN2CCCC2)N(C)C(=O)Cc2ccccn2)c1` [compound 30, N-[(1S)-1-{3-[({2-[2-(2-Butoxyethoxy)ethoxy]ethyl}sulfonyl)amino]phenyl}-2-(pyrrolidin-1-yl)ethyl]-N-methyl-2-(pyridin-2-yl)acetamide]?
pIC50 [1]: 6.33; pKi [1]: 7.22; inhibition at 10 µM [2]: 85.5%; pEC50 [3]: 7.41

With `COCCOCCOCCO[C@H]1CCN(C[C@H](c2ccc(C(F)(F)F)cc2)N(C)C(=O)Cc2ccc(Cl)c(Cl)c2)C1` [compound 33, 2-(3,4-Dichlorophenyl)-N-{(1S)-2-[(3S)-3-{2-[2-(2-methoxyethoxy)ethoxy]ethoxy}pyrrolidin-1-yl]-1-[4-(trifluoromethyl)phenyl]ethyl}-N-methylacetamide] as the compound, how does the pIC50 [1] read?
The pIC50 was 5.91.

What about the pKi [1] of the same compound?
Its pKi is 6.54.

And the inhibition at 10 µM [2]?
Its inhibition at 10 µM is 84.1%.

Which results are given for `COCCOCCOCCOCCOCCO[C@H]1CCN(C[C@H](c2ccccc2)N(C)C(=O)Cc2ccccc2[N+](=O)[O-])C1` [compound 41, N—((S)-2-((S)-3-(2,5,8,11,14-pentaoxahexadecan-16-yloxy)pyrrolidin-1-yl)-1-phenylethyl)-N-methyl-2-(2-nitrophenyl)acetamide]?
pIC50 [1]: 5.28; pKi [1]: 5.92; inhibition at 10 µM [2]: 20.5%
